Tests used:
Type in all cases: in vivo
Conditions in all cases: active ingredient amount 31 g/ha, 14th day after application
[1] = test system: barnyardgrass (Echinochloa crus-qalli L.); experiment: Test Example 1: foliar treatment, growth inhibition rate on 14th day
In short: (§1)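 Using a small sprayer, formulated compound in water (0.1 vol % surfactant, 1,000 L/ha) was applied to seedlings grown from seed in upland soil. Fourteen days on, growth state was observed and expressed as percent inhibition from 0 to 100.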

corn (Zea mays L.) [2] = experiment: as above
In short: as §1

[3] = test system: crabgrass (Digitaria sanquinalis L.); experiment: as above
In short: as §1

[4] = test system: green foxtail (Setaria viridis L.); experiment: as above
In short: (§2)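 Compounds applied once to leaves of pot-grown plants; wild oat at 0.4–1.2 leaf, foxtail 0.5–3.2, rice 0.2–2.7, soybean primary leaf. Inhibition estimated by eye on day 14.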

[5] = test system: italian ryegrass (Lolium multiflorum Lam.); experiment: as above
In short: as §1

[6] = test system: redroot pigweed (Amaranthus retroflexus L.); experiment: as above
In short: as §1

rice (Oryza sativa L.) [7] = experiment: as above
In short: as §2

[8] = test system: soybean (Glycine max Merr.); experiment: as above
In short: as §2

[9] = test system: wheat (Triticum aestivum L.); experiment: as above
In short: as §1

[10] = test system: wild oat (Avena fatua L.); experiment: as above
In short: as §2

[11] = test system: barnyardgrass (Echinochloa crus-qalli L.); experiment: Test Example 2: soil application on the day after sowing, growth inhibition rate on 14th day
In short: (§3)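 Read-out is visual percent growth inhibition 14 days post-application, scaled from 0 (as non-treated) to 100 (complete kill). Treatment: soil application by small sprayer the day after sowing, compound formulations diluted in water equivalent to 1,000 L/ha.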

corn (Zea mays L.) [12] = experiment: as above
In short: as §3

[13] = test system: crabgrass (Digitaris sanquinalis L.); experiment: as above
In short: as §3

[14] = test system: green foxtail (Setaria viridis L.); experiment: as above
In short: as §3

[15] = test system: prickly sida (Sida spinosa L.); experiment: as above
In short: as §3

[16] = test system: redroot pigweed (Amaranthus retroflexus L.); experiment: as above
In short: as §3

rice (Oryza sativa L.) [17] = experiment: as above
In short: as §3

[18] = test system: soybean (Glycine max Merr.); experiment: as above
In short: as §3

[19] = test system: velvetleaf (Abutilon theophrasti MEDIC.); experiment: as above
In short: as §3

[20] = test system: wheat (Triticum aestivum L.); experiment: as above
In short: as §3

[21] = visual, 0 = non-treated, 100 = complete kill

SMILES	Growth inhibition rate (%) Barnyardgrass [11] [%]	Growth inhibition rate (%) Corn (corn (Zea mays L.) [12]) [%]	Growth inhibition rate (%) Crabgrass [13] [%]	Growth inhibition rate (%) Green foxtail [14] [%]	Growth inhibition rate (%) Prickly sida [15] [%]	Growth inhibition rate (%) Redroot pigweed [16] [%]	Growth inhibition rate (%) Rice (rice (Oryza sativa L.) [17]) [%]	Growth inhibition rate (%) Soybean [18] [%]	Growth inhibition rate (%) Velvetleaf [19] [%]	Growth inhibition rate (%) Wheat [20] [%]	Growth inhibition rate (%) Barnyardgrass [1] [%]	Growth inhibition rate (%) Corn (corn (Zea mays L.) [2]) [%]	Growth inhibition rate (%) Crabgrass [3] [%]	Growth inhibition rate (%) Green foxtail [4] [%]	Growth inhibition rate (%) Italian ryegrass [5] [%]	Growth inhibition rate (%) Redroot pigweed [6] [%]	Growth inhibition rate (%) Rice (rice (Oryza sativa L.) [7]) [%]	Growth inhibition rate (%) Soybean [8] [%]	Growth inhibition rate (%) Wheat [9] [%]	Growth inhibition rate (%) Wild oat [10] [%]	further results
CCn1nc(C)c(O)c(-c2cc(Oc3cnc4cc(Cl)ccc4n3)ccc2C)c1=O [Compound 3-96]	99	0	98	85	0	0	75	0	0	0											Growth inhibition rate (%) Barnyardgrass [1, 21]: 100%; Growth inhibition rate (%) Corn (corn (Zea mays L.) [2]; [21]): 20%; Growth inhibition rate (%) Crabgrass [3, 21]: 100%; Growth inhibition rate (%) Green foxtail [4, 21]: 100%; Growth inhibition rate (%) Italian ryegrass [5, 21]: 99%; Growth inhibition rate (%) Redroot pigweed [6, 21]: 0%; Growth inhibition rate (%) Rice (rice (Oryza sativa L.) [7]; [21]): 95%; Growth inhibition rate (%) Soybean [8, 21]: 0%; Growth inhibition rate (%) Wheat [9, 21]: 95%; Growth inhibition rate (%) Wild oat [10, 21]: 98%
CC(=O)Oc1c(C)nn(C)c(=O)c1-c1cc(Oc2nc3ccccc3o2)ccc1C [Compound 2-138]	93	0	83	90	0	0	25	0	0	0	90	15	65	65	20	0	35	0	10	20	
Cc1ccc(Oc2ncc(C(F)(F)F)cc2Cl)cc1-c1c(OC(=O)OC(C)(C)C)c(C)nn(C)c1=O [1-59]	100	0	100	99	0	0	20	0	0	0	100	98	100	100	98	0	40	0	93	99	
Cc1ccc(Oc2cnc3cc(Cl)ccc3n2)cc1-c1c(OC(=O)c2ccccn2)c(C)nn(C)c1=O [Compound 3-51]	99	0	95	100	0	0	0	0	0	0											Growth inhibition rate (%) Barnyardgrass [1, 21]: 99%; Growth inhibition rate (%) Corn (corn (Zea mays L.) [2]; [21]): 60%; Growth inhibition rate (%) Crabgrass [3, 21]: 100%; Growth inhibition rate (%) Green foxtail [4, 21]: 100%; Growth inhibition rate (%) Italian ryegrass [5, 21]: 99%; Growth inhibition rate (%) Redroot pigweed [6, 21]: 0%; Growth inhibition rate (%) Rice (rice (Oryza sativa L.) [7]; [21]): 60%; Growth inhibition rate (%) Soybean [8, 21]: 30%; Growth inhibition rate (%) Wheat [9, 21]: 99%; Growth inhibition rate (%) Wild oat [10, 21]: 99%
CCc1ccc(Oc2ncc(C(F)(F)F)cc2Cl)cc1-c1c(O)cnn(CC)c1=O [1-173]	100	50	100	100	0	0	60	0	0	0	100	99	100	100	95	0	60	0	35	100	
CC(=O)Oc1c(C)nn(C)c(=O)c1-c1cc(Oc2ncc(Cl)cc2F)ccc1C [Compound 2-59]	75	0	70	40	0	0	0	0	0	0	99	90	83	83	90	0	90	0	40	95	
CCn1nc(C)c(O)c(-c2cc(Oc3ncc(C(F)(F)F)cc3Cl)ccc2C)c1=O [1-65]	100	0	100	99	0	0	20	0	0	0	99	98	100	100	98	0	60	0	10	98	
CC(=O)Oc1c(C)nn(C)c(=O)c1-c1cc(Oc2ccc3cc(Br)ccc3n2)ccc1C [Compound 2-127]	93	0	10	78	0	0	0	0	0	0	100	0	30	100	78	0	70	0	100	90	
Cc1ccc(Oc2nc3ccc(Cl)cc3o2)cc1-c1c(O)c(C)nn(C)c1=O [Compound 2-8]	100	0	95	100	0	0	20	0	0	0	100	10	100	99	83	0	15	0	25	65	

— patent publication US10870638B2, “Pyridazinone compound or its salt, and herbicide containing it” (ISHIHARA SANGYO KAISHA, LTD., priority 2016, dated 2020)
